Data taken from publication PMC9502897, “Design, Synthesis and Structure—Activity Relationships of Phenylalanine-Containing Peptidomimetics as Novel HIV-1 Capsid Binders Based on Ugi Four-Component Reaction” (Molecules, 2022).

What was measured:
HIV-2 = assay: Anti-HIV-2 activity in MT-4 cells (MTT method); format: cell-based
Method: (§1) The evaluation of the antiviral activity of the compounds against HIV in MT-4 cells was performed using the MTT assay as described below. Stock solutions (10 × final concentration) of test compounds were added in 25 μL volumes to two series of triplicate wells to allow simultaneous evaluation of their effects on mock- and HIV-infected cells at the beginning of each experiment. Serial 5-fold dilutions of test compounds were made directly in flat-bottomed 96-well microtiter trays using a Biomek 3000 robot (Beckman Instruments, Fullerton, CA). Untreated HIV- and mock-infected cell samples were included as controls. HIV stock ([…]) at 100–300 CCID50 (50% cell culture infectious doses) or culture medium was added to either the infected or mock-infected wells of the microtiter tray. Mock-infected cells were used to evaluate the effects of the test compound on uninfected cells to assess the test compounds’ cytotoxicity. Exponentially growing MT-4 cells were centrifuged for 5 min at 220 g, and the supernatant was discarded. The MT-4 cells were resuspended at 6 × 10^5 cells/mL, and 50 μL volumes were transferred to the microtiter tray wells. Five days after infection, the viability of mock- and HIV-infected cells was examined spectrophotometrically using the MTT assay. The MTT assay is based on the reduction of yellow-colored 3-(4,5-dimethylthiazol-2-yl)-2,5-diphenyltetrazolium bromide (MTT) (Acros Organics) by mitochondrial dehydrogenase activity in metabolically active cells to a blue-purple formazan that can be measured spectrophotometrically. The absorbances were read in an eight-channel computer-controlled photometer (Infinite M1000, Tecan) at two wavelengths (540 and 690 nm). All data were calculated using the median absorbance value of three wells.

MT-4 cells = assay: in vitro
Method: as §1

HIV-1 = assay: Anti-HIV-1 activity in MT-4 cells (MTT method); format: cell-based; conditions: for EC50: MT-4 cells, 50% protection against HIV-induced cytopathicity, MTT method; for anti-HIV activity: R2 1-methylnaphthalene replaced by 2-methylnaphthalene, HIV-1/HIV-2, MT-4 cells
Method: as §1

HIV-1 NL4-3 CA hexamer = HIV-1 NL4-3 CA hexamer (Human immunodeficiency virus type 1 group M subtype B, UniProt P12493, A146C/E177C/M317A/W316A); assay: SPR binding to disulfide-stabilized NL4-3 CA hexamer
HIV-1 NL4-3 CA monomer = molecular target: T1, HIV-1 NL4-3 CA monomer (Human immunodeficiency virus type 1 group M subtype B, UniProt P12493); assay: biochemical; format: binding; conditions: SPR
T1 construct: the HIV-1 NL4-3 capsid protein constructs; His6 (C); made in house; host or cells: E. coli BL21-Codon Plus (DE3)-RIL

in vitro = conditions: human
Method: as §1

HIV = conditions: moderate activity; cited from earlier work
[1] = metabolic stability; cited from earlier work
[2] = Human immunodeficiency virus 2, MT4, 50% protection against HIV-induced cytopathicity
[3] = Human immunodeficiency virus 1, MT4
[4] = 50% protection against HIV-induced cytopathicity

Compound | EC50 (HIV-2; [2]) | CC50 (MT-4 cells; human, 5 days) | EC50 (HIV-1; [3]) | other results
COc1ccc(N(C)C(=O)[C@H](Cc2cc(F)cc(F)c2)NC(=O)CN(Cc2ccc(F)cc2)C(=O)Cc2ccc3ccccc3c2)cc1 [I-6, (S)-3-(3,5-difluorophenyl)-2-(2-(N-(4-fluorobenzyl)-2-(naphthalen-2-yl)acetamido)acetamido)-N-(4-methoxyphenyl)-N-methylpropanamide] | > 160 µM | > 160 µM | > 160 µM | anti-HIV activity (HIV-1): lost
COc1ccc(N(C)C(=O)[C@H](Cc2cc(F)cc(F)c2)NC(=O)CN(Cc2ccc(F)cc2)C(=O)Cc2c(C)[nH]c3ccccc23)cc1 [I-7, (S)-3-(3,5-difluorophenyl)-2-(2-(N-(4-fluorobenzyl)-2-(2-methyl-1H-indol-3-yl)acetamido)acetamido)-N-(4-methoxyphenyl)-N-methylpropanamide] | > 22.6 µM | 22.6 ± 0.96 µM | 2.79 ± 0.19 µM | –
COc1ccc(N(C)C(=O)[C@H](Cc2cc(F)cc(F)c2)NC(=O)CN(Cc2ccc(F)cc2)C(=O)Cc2cccc3ccccc23)cc1 [I-8, (S)-3-(3,5-difluorophenyl)-2-(2-(N-(4-fluorobenzyl)-2-(naphthalen-1-yl)acetamido)acetamido)-N-(4-methoxyphenyl)-N-methylpropanamide] | 5.87 ± 1.79 µM | > 191 µM | > 191 µM | –
COc1ccc(N(C)C(=O)[C@H](Cc2cc(F)cc(F)c2)NC(=O)CN(Cc2ccc(F)cc2)C(=O)Cc2c[nH]c3ccc(Br)cc23)cc1 [I-9, (S)-2-(2-(2-(5-bromo-1H-indol-3-yl)-N-(4-fluorobenzyl)acetamido)acetamido)-3-(3,5-difluorophenyl)-N-(4-methoxyphenyl)-N-methylpropanamide] | > 17.8 µM | 17.8 ± 1.04 µM | 2.93 ± 0.32 µM | –
COc1ccc(N(C)C(=O)[C@H](Cc2cc(F)cc(F)c2)NC(=O)CN(CC2CCCCC2)C(=O)Cc2c[nH]c3ccc(Br)cc23)cc1 [I-10, (S)-2-(2-(2-(5-bromo-1H-indol-3-yl)-N-(cyclohexylmethyl)acetamido)acetamido)-3-(3,5-difluorophenyl)-N-(4-methoxyphenyl)-N-methylpropanamide] | > 17.6 µM | 17.6 ± 2.41 µM | > 17.6 µM | –
COc1ccc(N(C)C(=O)[C@H](Cc2cc(F)cc(F)c2)NC(=O)CN(Cc2ccc(F)cc2)C(=O)Cc2ccc(B3OC(C)(C)C(C)(C)O3)cc2)cc1 [I-12, (S)-3-(3,5-difluorophenyl)-2-(2-(N-(4-fluorobenzyl)-2-(4-(4,4,5,5-tetramethyl-1,3,2-dioxaborolan-2-yl)phenyl)acetamido)acetamido)-N-(4-methoxyphenyl)-N-methylpropanamide] | 13.2 ± 2.6 µM | 65.4 ± 16.8 µM | 11.7 ± 2.07 µM | –
COc1ccc(N(C)C(=O)[C@H](Cc2cc(F)cc(F)c2)NC(=O)CN(Cc2ccc(C#N)cc2)C(=O)Cc2ccc3ccccc3c2)cc1 [I-13, (S)-2-(2-(N-(4-cyanobenzyl)-2-(naphthalen-2-yl)acetamido)acetamido)-3-(3,5-difluorophenyl)-N-(4-methoxyphenyl)-N-methylpropanamide] | 161 ± 26 µM | > 189 µM | > 189 µM | anti-HIV activity (HIV-1): lost
COc1ccc(N(C)C(=O)[C@H](Cc2cc(F)cc(F)c2)NC(=O)CN(Cc2ccc(C#N)cc2)C(=O)Cc2cccc3ccccc23)cc1 [I-14, (S)-2-(2-(N-(4-cyanobenzyl)-2-(naphthalen-1-yl)acetamido)acetamido)-3-(3,5-difluorophenyl)-N-(4-methoxyphenyl)-N-methylpropanamide] | 2.3 ± 0.11 µM | > 189 µM | > 189 µM | –
COc1ccc(N(C)C(=O)[C@H](Cc2cc(F)cc(F)c2)NC(=O)CN(Cc2ccc(C#N)cc2)C(=O)Cc2ccc(B3OC(C)(C)C(C)(C)O3)cc2)cc1 [I-17, (S)-2-(2-(N-(4-cyanobenzyl)-2-(4-(4,4,5,5-tetramethyl-1,3,2-dioxaborolan-2-yl)phenyl)acetamido)acetamido)-3-(3,5-difluorophenyl)-N-(4-methoxyphenyl)-N-methylpropanamide] | 16.2 ± 4.59 µM | 52.4 ± 14.2 µM | 17.7 ± 4.6 µM | –
COc1ccc(N(C)C(=O)[C@H](Cc2cc(F)cc(F)c2)NC(=O)CN(C(=O)Cc2ccc(B3OC(C)(C)C(C)(C)O3)cc2)C2CC2)cc1 [I-18, (S)-2-(2-(N-cyclopropyl-2-(4-(4,4,5,5-tetramethyl-1,3,2-dioxaborolan-2-yl)phenyl)acetamido)acetamido)-3-(3,5-difluorophenyl)-N-(4-methoxyphenyl)-N-methylpropanamide] | 9.71 ± 0.8 µM | 89 ± 17.1 µM | 5.18 ± 1.11 µM | –
COc1ccc(N(C)C(=O)[C@H](Cc2cc(F)cc(F)c2)NC(=O)CN(Cc2ccc(F)cc2)C(=O)Cn2nc(C(F)(F)F)c3c2CCCC3)cc1 [I-19, (S)-3-(3,5-difluorophenyl)-2-(2-(N-(4-fluorobenzyl)-2-(3-(trifluoromethyl)-4,5,6,7-tetrahydro-1H-indazol-1-yl)acetamido)acetamido)-N-(4-methoxyphenyl)-N-methylpropanamide] | 12.9 ± 3.72 µM | – | 2.53 ± 0.84 µM | melting point: 46 to 48 °C; Koff Hexamer (HIV-1 NL4-3 CA hexamer; 1:1 binding model): 0.00758 ± 0.000504 S^−1; Kon Hexamer (HIV-1 NL4-3 CA hexamer; 1:1 binding model): 628 ± 152 M^−1S^−1; Kd (HIV-1 NL4-3 CA hexamer; 25 °C, at least 3 replicates): 36.9 µM; Ratio KD (monomer)/KD(hexamer) (HIV-1 NL4-3 CA monomer): 0.36; Koff Monomer (HIV-1 NL4-3 CA monomer; 1:1 binding model): 0.0301 ± 0.0172 S^−1; Kon Monomer (HIV-1 NL4-3 CA monomer; 1:1 binding model): 4160 ± 1670 M^−1S^−1; Kd (HIV-1 NL4-3 CA monomer; 25 °C, at least 3 replicates): 13.3 µM; CC50 at 5 days (in vitro; CC50): 108 ± 27.4 µM
COc1ccc(N(C)C(=O)[C@H](Cc2cc(F)cc(F)c2)NC(=O)CN(CC2CCCCC2)C(=O)Cn2nc(C(F)(F)F)cc2C)cc1 [I-20, (S)-2-(2-(N-(cyclohexylmethyl)-2-(5-methyl-3-(trifluoromethyl)-1H-pyrazol-1-yl)acetamido)acetamido)-3-(3,5-difluorophenyl)-N-(4-methoxyphenyl)-N-methylpropanamide] | 24.9 ± 12 µM | 45.7 ± 5.36 µM | 30.3 ± 3.24 µM | –
COc1ccc(N(C)C(=O)[C@H](Cc2cc(F)cc(F)c2)NC(=O)CN(Cc2ccccc2)C(=O)Cc2c(C)[nH]c3ccccc23)cc1 [I-21, (S)-2-(2-(N-benzyl-2-(2-methyl-1H-indol-3-yl)acetamido)acetamido)-3-(3,5-difluorophenyl)-N-(4-methoxyphenyl)-N-methylpropanamide] | 6.52 ± 0.6 µM | 28.6 ± 0.86 µM | 2.77 ± 0.77 µM | –
COc1ccc(N(C)C(=O)[C@H](Cc2cc(F)cc(F)c2)NC(=O)CN(Cc2ccccc2)C(=O)Cc2ccc3ccccc3c2)cc1 [I-22, (S)-2-(2-(N-benzyl-2-(naphthalen-2-yl)acetamido)acetamido)-3-(3,5-difluorophenyl)-N-(4-methoxyphenyl)-N-methylpropanamide] | > 18.9 µM | 176 ± 7.35 µM | > 176 µM | –
COc1ccc(N(C)C(=O)[C@H](Cc2cc(F)cc(F)c2)NC(=O)CN(Cc2ccc(F)cc2)C(=O)Cc2ccc(B(O)O)cc2)cc1 [I-23, (S)-(4-(2-((2-((3-(3,5-difluorophenyl)-1-((4-methoxyphenyl)(methyl)amino)-1-oxopropan-2-yl)amino)-2-oxoethyl)(4-fluorobenzyl)amino)-2-oxoethyl)phenyl) boronic acid] | 6.8 ± 0.36 µM | 18.9 ± 3.59 µM | 4.33 ± 1.32 µM | –
Cc1ccnc2c1NC(=O)c1cccnc1N2C1CC1 [NVP, nevirapine, reference compound] | > 15 µM | – | – | CC50 at 5 days (in vitro; mock-infected (uninfected) MT-4 cells, CC50, uninfected MT-4 cells, viability reduced by 50%, MTT method): > 15.2 µM; CC50 (MT-4 cells; uninfected MT-4 cells, viability reduced by 50%, MTT method): > 15 µM
Cc1[nH]c2ccccc2c1CC(=O)NC(Cc1ccccc1)C(=O)N(C)c1ccccc1 (stereo not shown) [PF-74, reference compound] | > 2.22 µM | – | 0.26 ± 0.08 µM | EC50 (HIV): 0.52 to 0.9 µM; T1/2 [1]: 30 to 78 s; EC50 (HIV-2; [4]): 2.22 ± 0.31 µM; CC50 at 5 days (in vitro; CC50): 73.8 ± 7.54 µM
(S)-2-(2-(2-(5-bromo-2-methyl-1H-indol-3-yl)-N-(4-cyanobenzyl)acetamido)acetamido)-3-(3,5-difluorophenyl)-N-(4-methoxyphenyl)-N-methylpropanamide [I-16] | – | – | – | EC50 (HIV-2; [4]): 15.7 ± 13.3 µM; CC50 (MT-4 cells): 87.6 ± 62.2 µM; EC50 (HIV-1): 5.61 ± 1.18 µM
(S)-2-(2-(N-(4-cyanobenzyl)-2-(5-fluoro-2-methyl-1H-indol-3-yl)acetamido)acetamido)-3-(3,5-difluorophenyl)-N-(4-methoxyphenyl)-N-methylpropanamide [I-15] | – | – | – | EC50 (HIV-2; [4]): 5.81 ± 1.11 µM; CC50 (MT-4 cells): 148 ± 16.6 µM; EC50 (HIV-1): 17.2 ± 9.98 µM
